Literature values, collected in patent US20230000786A1, “TREATMENT OF SKIN DISORDERS WITH TOPICAL COMPOSITIONS COMPRISING TAPINAROF AND A PDE4 INHIBITOR” (Sol-Gel Technologies Ltd., priority 2019, published 2023).
Read-outs that look alike come from different tables or passages of the source.

Tests used:
[1] = psoriasis treatment, single drug; placebo 20.2%
[2] = test system: proinflammatory mediators, including interleukin-6 and interleukin-17A; details: mouse models
[3] = across all groups treated
[4] = 1% tapinarof arm compared with 0.5% arm or vehicle
[5] = test system: proinflammatory mediators, including interleukin-6 and interleukin-17A; details: in vitro human skin studies
[6] = interleukin-6 and interleukin-17A

Compound	adverse effects [1] [%]	skin barrier function [2]	inhibition of specific proinflammatory mediators [2, 6]	folliculitis side-effect [3] [%]	contact dermatitis side-effect ([3]; listed among most common side-effects (>5%)) [%]	efficacy [4]	onset of action [4]	skin barrier function [5]	inhibition of specific proinflammatory mediators [5, 6]
C=C1/C(=C\C=C2/CCC[C@]3(C)[C@@H]([C@H](C)/C=C/[C@@H](O)C4CC4)CC[C@@H]23)C[C@@H](O)C[C@@H]1O [calcipotriene]	19.5								
CC(C)c1c(O)cc(/C=C/c2ccccc2)cc1O [Tapinarof, 3,5-dihydroxy-4-isopropyl-trans-stilbene]	44.5	enhance skin barrier function	inhibit specific proinflammatory mediators	9	> 5	higher efficacy	quicker onset of action	enhance skin barrier function	inhibit specific proinflammatory mediators
